Measured values: US8513161B2, “Enhancement of plant growth” (Valent Biosciences Corporation, priority 2007, dated 2013)
Counter-ions that a name gives are not always drawn.

Assays:
[1] = test system: cotton; assay: Pouch assay of cotton after PESA salt and clothianidin seed treatments; assay type: in vivo; conditions: seed treatment; for shoot length of cotton: control 3.7; for root length of cotton: control 9.6
Procedure: (§1) Seed was sieved with a screen of hole size appropriate to remove broken seeds and small trash. Cracked or otherwise damaged seeds were removed. The seed was well mixed, and 50 g samples were weighed into small plastic trays. Seed treatment slurries were made by adding measured amounts of the active ingredients to sufficient water to bring them up to a standard volume, typically 2 ml. A fungicide (Maxim XL; Syngenta Agricultural Products, Greensboro, N.C.), a polymeric binder (CF-Clear; Becker-Underwood, Ames, Iowa), and a colorant (Color Coat Red; Becker-Underwood, Ames, Iowa) were also included in the slurry at label rates. A small aliquot of this slurry was applied to the seed using the Hege 11 coater (Wintersteiger, Salt Lake City, Utah) with a six-inch bowl. The slurry was deposited drop-wise on the spinning disk atomizer using a syringe.
(§2) Seeds were placed in germination pouches consisting of germination paper hydrated with sterile water that was an insert in a gas-permeable 16×14 cm plastic pouch (CYG Pouch; Mega International, St. Paul, Minn.). In these examples, in pouch solution evaluation, clothianidin and PESA sodium salt were added to the sterile water in the pouch. Alternatively, imidacloprid or dinotefuran and PESA sodium salt were added to the sterile water in the pouch. The pouches were arranged in a completely randomized block design in growth racks and placed in 19-liter polycarbonate food storage containers (Rubbermaid Commercial Products, Winchester, Va.). The sealed containers were held in an upright growth cabinet maintained at 25 C with a 12 hour light: 12 hour dark photoperiod. After 6 days, the containers were removed from the growth cabinet, and the lengths of the roots and shoot were measured.

[2] = test system: cotton; assay: Continuous exposure pouch study, PESA salt and clothianidin on cotton; assay type: in vivo; conditions: for shoot length of cotton / root length of cotton: in pouch; for shoot length of cotton: control 6.1; for root length of cotton: control 11.4
Procedure: as §2

[3] = test system: cotton; assay: Continuous exposure pouch study, PESA salt and imidacloprid on cotton; assay type: in vivo; conditions: for shoot length of cotton / root length of cotton: in pouch; for shoot length of cotton: control 6.2; for root length of cotton: control 13.3
Procedure: as §2, with “measured. […] Root lengths of the control and combination treatment of imidacloprid with 100 mg/liter PESA salt were similar.” for “measured.”

[4] = test system: rice; assay: Pouch study of rice, imidacloprid seed treatment with PESA salt solution in pouch; assay type: in vivo
Procedure: as §1, §2
Root lengths of the control and combination treatment of 200 grams imidacloprid/100 pounds of seed with 50 mg/liter PESA salt were similar.

[5] = test system: soybean; assay: Field study, seed treatment of soybean; assay type: in vivo; conditions: for average plant height of soybean: 66 days after planting, control 23.8
Procedure: (§3) For the field studies, the seed was treated with a seed treatment formulation containing clothianidin. The rate of clothianidin was dependent on the crop species. The seed treatment formulations were amended with the appropriate concentrations of either PESA or the sodium salt of PESA. Crops were planted and grown under standard agricultural practices, and evaluated at the times indicated. The sodium salt of PESA was prepared as described above, and was used in seed treatment either alone or in the presence of clothianidin. Soybean seed was treated with 0 or 50 grams of clothianidin/100 kg (220 pound) of seed and with 0, 22, 55, or 137.5 grams PESA salt/100 kg seed.

[6] = test system: canola; assay: Field study, seed treatment of canola; assay type: in vivo, Brassica napus; conditions: for vigor rating (1 = low and 5 = high) of canola plants: 19 days after planting, control 3.8
Procedure: as §3, with “Canola (Brassica napus)” for “Soybean”, “400” for “50”

[7] = test system: maize; assay: Field study, seed treatment of maize; assay type: in vivo, Zea mays; conditions: 27 days after planting, control 3.6
Procedure: For the field studies, the seed was treated with a seed treatment formulation containing clothianidin. The rate of clothianidin was dependent on the crop species. The seed treatment formulations were amended with the appropriate concentrations of either PESA or the sodium salt of PESA. Crops were planted and grown under standard agricultural practices, and evaluated at the times indicated. The PESA or the sodium salt of PESA was prepared as described above, and was used in seed treatment either alone or in the presence of clothianidin. Maize (Zea mays) seed was treated with 0 or 0.25 milligrams of clothianidin/seed and with 0, 22, 55, or 137.5 grams PESA salt/100 kg seed.

[8] = PESA salt 10 g/100 pounds of seed alone
[9] = PESA salt 25 g/100 pounds of seed alone
[10] = sodium salt of PESA 22 g/100 kg seed alone
[11] = sodium salt of PESA 55 g/100 kg seed alone
[12] = sodium salt of PESA 137.5 g/100 kg seed alone

## O=C(O)CCC(=O)NCCc1ccccc1 [PESA salt]
[1]; Table 2
  effect on cotton shoot length: increased cotton shoot length
[1]; conclusion from Table 1
  safening of cotton: safened cotton against clothianidin-induced root growth inhibition
[1]; [8]
  shoot length of cotton: 4.3 cm
  root length of cotton: 8.8 cm
[1]; [9]
  shoot length of cotton: 4.3 cm
  root length of cotton: 10.6 cm
[2]; continuous exposure pouch, conclusion from Table 3
  safening of cotton: safened cotton against clothianidin-induced root growth inhibition
[2]; continuous exposure pouch, substance alone
  effect on cotton root length: increased root length in a dose-dependent manner
[2]; continuous exposure pouch, 300 mg/liter PESA salt alone
  effect on cotton shoot length: reduced
[2]; PESA salt 10 mg/liter alone
  shoot length of cotton: 6.3 cm
  root length of cotton: 14.2 cm
[2]; PESA salt 30 mg/liter alone
  shoot length of cotton: 6.1 cm
  root length of cotton: 15.3 cm
[2]; PESA salt 100 mg/liter alone
  shoot length of cotton: 6.0 cm
  root length of cotton: 16.2 cm
[2]; PESA salt 300 mg/liter alone
  shoot length of cotton: 5.4 cm
[3]; conclusion from Table 5
  safening of cotton: safened cotton against imidacloprid-induced root growth inhibition
[3]; PESA salt 10 mg/liter alone
  shoot length of cotton: 6.2 cm
  root length of cotton: 14.6 cm
[3]; PESA salt 30 mg/liter alone
  shoot length of cotton: 6.0 cm
  root length of cotton: 16.9 cm
[3]; PESA salt 100 mg/liter alone
  shoot length of cotton: 6.0 cm
  root length of cotton: 16.5 cm
[3]; PESA salt 300 mg/liter alone
  shoot length of cotton: 5.7 cm
  root length of cotton: 11.9 cm
[4]; PESA salt 50 mg/liter in pouch alone, control 3.3
  shoot length of rice: 3.6 cm
[4]; PESA salt 50 mg/liter in pouch alone, control 10.7
  root length of rice: 12.0 cm
[4]; conclusion from Table 7
  safening of rice: safened, rice against imidacloprid-induced root growth inhibition
[5]; [10]
  average plant height of soybean: 23.8 inches
[5]; [11]
  average plant height of soybean: 23.5 inches
[5]; [12]
  average plant height of soybean: 23.2 inches
[5]; conclusion from Table 9
  safening of soybean: safened soybean against clothianidin-induced root growth inhibition
[6]; [10]
  vigor rating (1 = low and 5 = high) of canola plants: 3.8
[6]; [11]
  vigor rating (1 = low and 5 = high) of canola plants: 4
[6]; [12]
  vigor rating (1 = low and 5 = high) of canola plants: 4
[6]; conclusion from Table 11
  safening of canola: safened canola against clothianidin-induced vigor reduction
[7]; PESA sodium salt 22 g/100 kg seed alone
  vigor rating of maize plants, Vigor (1-5): 3.8
[7]; PESA sodium salt 55 g/100 kg seed alone
  vigor rating of maize plants, Vigor (1-5): 3.5
[7]; PESA sodium salt 137.5 g/100 kg seed alone
  vigor rating of maize plants, Vigor (1-5): 3.4
